Measurements as given in paper PMC7426938, “Induction of mitochondria-mediated apoptosis and suppression of tumor growth in zebrafish xenograft model by cyclic dipeptides identified from Exiguobacterium acetylicum” (Scientific Reports, 2020).

What was measured:
[1] = test system: HT-29 cells; experiment: Annexin V-FITC/PI double staining, flow cytometry; format: cell-based, human; conditions: 24 h; for LA/NC Q2 late apoptotic or/and necrotic cells, fold change / Q1 + Q2 total dead cells, fold change / Q1 dead cells, fold change / Q2 + Q3 total apoptotic cells, fold change / EAC Q3 early apoptotic cells, fold change: vs CTL; for viability at 50 µM / viability at 100 µM / viability at 200 µM: Homo sapiens, HT-29, quadrant plot, read-out: Percentage of viable (Q4) cells
Method: The dead, necrotic, and apoptotic cells were analyzed by annexin V/PI double staining method, which was used to detect the externalization of phosphatidylserine (PS). Briefly, cells at the density of 4.5 × 10^4 cells/well were seeded into 6-well plates and treated with or without DKPs for 24 h. Subsequently, both floating and adherent cells were harvested by centrifugation at 1,500 rpm for 5 min, then re-suspended in 300 μL of 1X binding buffer, followed by 3 μL of annexin V-FITC and propidium iodide (PI) (Apoptosis Detection kit, Lead Gen, Taiwan) was added into each sample and incubated for 20 min at room temperature in the dark following the protocol recommended by the manufactures. Cells were analyzed by flow cytometry (FACS Calibur, Becton Dickinson, CA, USA) using WinMDI 2.9 software (La Jolla, CA, USA). The individual populations can be defined using quadrant gates, the number of cells in each quadrant indicated the following: Quadrant-1 (Q1): annexin V^-/PI^+ cells were considered as dead cells; Quadrant-2 (Q2): Annexin V^+/PI^+ cells were considered as late apoptotic and necrotic cells; Quadrant-3 (Q3): Annexin V^+/PI^− cells were considered as early apoptotic cells; Quadrant-4 (Q4): Annexin V^-/PI^- cells were considered as healthy. Data were analyzed using FlowJo V12.1 software (Tree stat, Stanford, CA, USA).

[2] = test system: zebrafish (ABiC) embryos; experiment: Zebrafish embryo developmental toxicity assay; format: in vivo, zebrafish (Danio rerio); conditions: for survival rate of embryos compared with untreated and DMSO treated embryos: 50, 100 and 150 μM, 96 hpf
[3] = test system: Bid protein in HT-29 cells; experiment: Western blot, Bid protein; format: cell-based, human; conditions: for Bid protein expression up-regulation: 200 μM, 24 h, vs untreated group
Method: (§1) Total protein was isolated from HT-29 cells by using lysis buffer. Cells were collected by centrifugation at 1,500 rpm for 5 min. After that, cell pellets were re-suspended with RIPA lysis buffer consisting of 1 mM protease inhibitor cocktail (PIC; Sigma-Aldrich; P8340) and lysed at […] for 1 h. After incubation, the protein was obtained by centrifugation at 13,000 × g for 15 min and kept for − 80 °C until analysis. Also, mitochondrial and cytosolic fractions were obtained by using fraction lysis buffer as described previously[50] with minor modifications. Lysed cells were kept in ice for 10 min and then cells were triturated by a 27 gauge syringe (25 strokes) to become homogeneous followed by centrifugation at 13,000 × g for 30 min. The collected supernatant was the cytosolic fraction. After the pellet was washed with lysis buffer and it was dissolved in lysis buffer for protein quantification. Protein concentration was measured by Pierce BCA protein assay kit (Thermo Scientific Laboratories, Rockford, USA) according to the manufacturer instructions. Equal amounts of proteins from all samples were separated by 10% SDS–polyacrylamide gel electrophoresis (SDS-PAGE) and electrotransferred. Polyvinylidene difluoride (PVDF) membrane was blocked with 5% skimmed milk for 1 h, followed by incubation with primary (Cytochrome-c: sc-13560; Bid: sc-11423; COX-IV: #4850; 1:2000; GAPDH: #3683; 1:10,000) and HRP-conjugated secondary (Got Anti-mouse IgG: 20102; Got anti-rabbit IgG: 20202: 1:10,000) antibodies against specific proteins. The protein signals were detected by Enhanced Chemiluminescence (ECL) detection kit (Amersham Piscataway, NJ, USA). The protein expression levels were analyzed by measuring the intensity of the band from scanned films using Image-J software. GAPDH and COX-IV served as a housekeeping protein to normalize the expression levels.

[4] = test system: Colorectal cancer HT-29 cells; experiment: MTT cell viability assay, HT-29; format: cell-based; conditions: Homo sapiens; for viability at 125 µM: 24 h treatment, read-out: relative percentage viability of HT-29 cells; for IC50: 24 h, MTT, read-out: HT-29 cells inhibitory (IC50) dose
Method: Human colorectal cancer (HT-29) and mouse embryonic fibroblast (3T3) cells were obtained from the American Type Culture Collection Centre (ATCC, VA, USA). Both cells were grown in Dulbecco Modified Eagle's Medium (DMEM, HiMedia, India) supplemented with 10% heat-inactivated fetal bovine serum (FBS), penicillin (50 units/mL), and streptomycin (50 µg/mL) and were cultured at 37 °C, 5% CO2 in a humidified atmosphere.
Cytotoxicity of the identified those DKPs were determined by cell viability study with the MTT (3-(4, 5-dimethylthiazol-2yl)-2, 5-diphenyltetrazolium bromide) reduction assay[49]. Briefly, 1.5 × 10^4 cells/well (HT-29) and 1.7 × 10^4 cells/well (3T3) cells were seeded into 96-well plates. They were incubated for 24 h at 37 °C with 5% CO2 and 95% relative humidity atmosphere. After 24 h, identified DKPs were added different concentrations (12.5 to 200 µM) into culture media in triplicates and re-incubated under the same culture conditions mentioned above. The final concentration of DMSO solution was 0.25% in the cells served as a negative control. Then culture media was removed from the plates, and 100 μL of freshly prepared MTT solution in serum-free medium (5 mg/mL) was added to each well and further incubated for 4 h. After that, 150 μL of DMSO solution was added under dark conditions and kept for 30 min at room temperature. The absorbance of the formazan product was measured at 595 nm in the microplate reader (Imark, Biorad). The percentage viability of the cells was measured by using the formula: Cell viability (%) = [(test/control) × 100)].
Results were expressed as mean ± standard deviation (SD). Data were analyzed one-way analysis of variance (ANOVA), followed by Student’s two-tailed t-test for comparison between two groups and Dunnett’s t-test was used when the data involved three or more groups. A value of p < 0.05 was considered statistically significant. All statistical analyses and inhibitory concentration (IC50) were determined by graph-pad prism statistical software (San Diego, CA, USA).

[5] = test system: Cytc protein in HT-29 cells; experiment: Western blot, Cytc protein; format: cell-based, human; conditions: 100 μM, 24 h, whole-cell lysate, vs untreated cells
Method: as §1

For `CC(C)C[C@@H]1NC(=O)[C@@H]2CCCN2C1=O` [DKP-1, cyclo (L-Pro-L-Leu)], the “LA/NC Q2 late apoptotic or/and necrotic cells, fold change” value ([1]; 50 μM) was 2.3 fold, the “Q1 + Q2 total dead cells, fold change” value ([1]; 50 μM) was 1.7 fold and the “Q1 dead cells, fold change” value ([1]; 50 μM) was 1.5 fold. The “Q2 + Q3 total apoptotic cells, fold change” value ([1]; 50 μM) was 2.3 fold, the “LA/NC Q2 late apoptotic or/and necrotic cells, fold change” value ([1]; 100 μM) was 2.6 fold and the “Q1 + Q2 total dead cells, fold change” value ([1]; 100 μM) was 3.0 fold. For the same molecule, the “Q1 dead cells, fold change” value ([1]; 100 μM) was 3.1 fold, the “Q2 + Q3 total apoptotic cells, fold change” value ([1]; 100 μM) was 3.6 fold and the “LA/NC Q2 late apoptotic or/and necrotic cells, fold change” value ([1]; 200 μM) was 9.9 fold. The “Q1 + Q2 total dead cells, fold change” value ([1]; 200 μM) was 3.3 fold, the “Q1 dead cells, fold change” value ([1]; 200 μM) was 1.1 fold and the “Q2 + Q3 total apoptotic cells, fold change” value ([1]; 200 μM) was 11.4 fold. It also gave a viability at 50 µM ([1]; 50 μM) of 83.3%, a viability at 100 µM ([1]; 100 μM) of 69.7% and a viability at 200 µM ([1]; 200 μM) of 56.3%. For the same molecule, the “survival rate of embryos compared with untreated and DMSO treated embryos” value [2] was “no significant decrease”, the “Bid protein expression up-regulation” value [3] was 1.32 fold and the viability at 125 µM [4] was 36.3 ± 5.08%. The IC50 [4] was 100 µM and the “Cytc protein expression up-regulation” value [5] was 1.21 fold.
For `CC(C)[C@@H]1NC(=O)[C@@H]2CCCN2C1=O` [DKP-2, cyclo (L-Pro-L-Val)], the “EAC Q3 early apoptotic cells, fold change” value ([1]; 50 μM) was 3.0 fold, the “LA/NC Q2 late apoptotic or/and necrotic cells, fold change” value ([1]; 50 μM) was 2.5 fold and the “Q1 + Q2 total dead cells, fold change” value ([1]; 50 μM) was 1.7 fold. The “Q1 dead cells, fold change” value ([1]; 50 μM) was 1.5 fold, the “Q2 + Q3 total apoptotic cells, fold change” value ([1]; 50 μM) was 2.7 fold and the “EAC Q3 early apoptotic cells, fold change” value ([1]; 100 μM) was 4.5 fold. The “LA/NC Q2 late apoptotic or/and necrotic cells, fold change” value ([1]; 100 μM) was 3.5 fold, the “Q1 + Q2 total dead cells, fold change” value ([1]; 100 μM) was 3.1 fold and the “Q1 dead cells, fold change” value ([1]; 100 μM) was 3.0 fold. The “Q2 + Q3 total apoptotic cells, fold change” value ([1]; 100 μM) was 3.9 fold, the “EAC Q3 early apoptotic cells, fold change” value ([1]; 200 μM) was 10.6 fold and the “LA/NC Q2 late apoptotic or/and necrotic cells, fold change” value ([1]; 200 μM) was 11.2 fold. The “Q1 + Q2 total dead cells, fold change” value ([1]; 200 μM) was 3.5 fold, the “Q1 dead cells, fold change” value ([1]; 200 μM) was 1.2 fold and the “Q2 + Q3 total apoptotic cells, fold change” value ([1]; 200 μM) was 11.0 fold. It also gave a viability at 50 µM ([1]; 50 μM) of 79.3%, a viability at 100 µM ([1]; 100 μM) of 64.2% and a viability at 200 µM ([1]; 200 μM) of 52.5%. For the same molecule, the “survival rate of embryos compared with untreated and DMSO treated embryos” value [2] was “no significant decrease”, the “Bid protein expression up-regulation” value [3] was 1.21 fold and the viability at 125 µM [4] was 42.3 ± 2.25%. The IC50 [4] was 118 µM.
In the case of `O=C1N[C@@H](Cc2ccccc2)C(=O)N2CCC[C@@H]12` [DKP-3, cyclo (L-Pro-L-Phe)], the “EAC Q3 early apoptotic cells, fold change” value ([1]; 50 μM) is reported as 16.5 fold, the “LA/NC Q2 late apoptotic or/and necrotic cells, fold change” value ([1]; 50 μM) is reported as 10.5 fold and the “Q1 + Q2 total dead cells, fold change” value ([1]; 50 μM) is reported as 3.3 fold. For the same molecule, the “Q1 dead cells, fold change” value ([1]; 50 μM) was 1.7 fold, the “Q2 + Q3 total apoptotic cells, fold change” value ([1]; 50 μM) was 12.7 fold and the “EAC Q3 early apoptotic cells, fold change” value ([1]; 100 μM) was 17.4 fold. For the same molecule, the “LA/NC Q2 late apoptotic or/and necrotic cells, fold change” value ([1]; 100 μM) was 14.9 fold, the “Q1 + Q2 total dead cells, fold change” value ([1]; 100 μM) was 3.8 fold and the “Q1 dead cells, fold change” value ([1]; 100 μM) was 1.4 fold. The “Q2 + Q3 total apoptotic cells, fold change” value ([1]; 100 μM) was 15.9 fold, the “EAC Q3 early apoptotic cells, fold change” value ([1]; 200 μM) was 22.3 fold and the “LA/NC Q2 late apoptotic or/and necrotic cells, fold change” value ([1]; 200 μM) was 15.6 fold. For the same molecule, the “Q1 + Q2 total dead cells, fold change” value ([1]; 200 μM) was 3.8 fold, the “Q1 dead cells, fold change” value ([1]; 200 μM) was 1.3 fold and the “Q2 + Q3 total apoptotic cells, fold change” value ([1]; 200 μM) was 18.1 fold. For the same molecule, the viability at 50 µM ([1]; 50 μM) was 55.8%, the viability at 100 µM ([1]; 100 μM) was 50% and the viability at 200 µM ([1]; 200 μM) was 45.4%. The “survival rate of embryos compared with untreated embryos” value ([2]; lower doses (50 and 150 μM)) was “higher”, the “Bid protein expression up-regulation” value [3] was 1.76 fold and the viability at 125 µM [4] was 34.7 ± 4.03%. For the same molecule, the IC50 [4] was 85.2 µM and the “Cytc protein expression up-regulation” value [5] was 1.45 fold.
In the case of `O=C1N[C@@H](Cc2ccc(O)cc2)C(=O)N2CCC[C@@H]12` [DKP-4, cyclo (L-Pro-L-Tyr)], the “EAC Q3 early apoptotic cells, fold change” value ([1]; 50 μM) is reported as 20.5 fold, the “LA/NC Q2 late apoptotic or/and necrotic cells, fold change” value ([1]; 50 μM) is reported as 8.4 fold and the “Q1 + Q2 total dead cells, fold change” value ([1]; 50 μM) is reported as 3.0 fold. For the same molecule, the “Q1 dead cells, fold change” value ([1]; 50 μM) was 1.5 fold, the “Q2 + Q3 total apoptotic cells, fold change” value ([1]; 50 μM) was 12.6 fold and the “EAC Q3 early apoptotic cells, fold change” value ([1]; 100 μM) was 18.4 fold. The “LA/NC Q2 late apoptotic or/and necrotic cells, fold change” value ([1]; 100 μM) was 14.6 fold, the “Q1 + Q2 total dead cells, fold change” value ([1]; 100 μM) was 3.9 fold and the “Q1 dead cells, fold change” value ([1]; 100 μM) was 1.0 fold. For the same molecule, the “Q2 + Q3 total apoptotic cells, fold change” value ([1]; 100 μM) was 15.9 fold, the “EAC Q3 early apoptotic cells, fold change” value ([1]; 200 μM) was 10.8 fold and the “LA/NC Q2 late apoptotic or/and necrotic cells, fold change” value ([1]; 200 μM) was 18.0 fold. The “Q1 + Q2 total dead cells, fold change” value ([1]; 200 μM) was 5.5 fold, the “Q1 dead cells, fold change” value ([1]; 200 μM) was 2.1 fold and the “Q2 + Q3 total apoptotic cells, fold change” value ([1]; 200 μM) was 15.5 fold. For the same molecule, the viability at 50 µM ([1]; 50 μM) was 57.6%, the viability at 100 µM ([1]; 100 μM) was 52% and the viability at 200 µM ([1]; 200 μM) was 46.5%. The “survival rate of embryos compared with untreated and DMSO treated embryos” value [2] was “no significant decrease”, the “Bid protein expression level” value ([3]; 100 μM, vs control and 200 μM) was “increased the expression level of Bid” and the viability at 125 µM [4] was 42.1 ± 2.94%. For the same molecule, the IC50 [4] was 98 µM and the “Cytc protein expression up-regulation” value [5] was 1.85 fold.
